Patent publication US20250228239A1, “MOLECULES HAVING PESTICIDAL UTILITY, AND INTERMEDIATES, COMPOSITIONS, AND PROCESSES, RELATED THERETO” (priority 2024, published 2025)
Read-outs that look alike come from different tables or passages of the source.

What was measured:
Format in all cases: in vivo
[1] = test system: Yellow Fever Mosquito (Aedes aegypti, AEDSAE); conditions: for YFM rating: Table ABC / ABC-DP rating
Procedure: Certain molecules disclosed in this document were tested against YFM using procedures described in the following paragraph. In the reporting of the results, the “GPA & YFM Rating Table” was used (See Table Section).
Master plates containing 400 μg of a molecule dissolved in 100 μL of dimethyl sulfoxide (DMSO) (equivalent to a 4000 ppm solution) are used. A master plate of assembled molecules contains 15 μL per well. To this plate, 135 μL of a 90:10 water/acetone mixture is added to each well. A robot (Biomek® NXP Laboratory Automation Workstation) is programmed to dispense 15 μL aspirations from the master plate into an empty 96-well shallow plate (“daughter” plate). There are 6 reps (“daughter” plates) created per master. The created “daughter” plates are then immediately infested with YFM larvae.
The day before plates are to be treated, mosquito eggs are placed in Millipore water containing liver powder to begin hatching (4 g into 400 mL). After the “daughter” plates are created using the robot, they are infested with 220 μL of the liver powder/larval mosquito mixture (about 1 day-old larvae). After plates are infested with mosquito larvae, a non-evaporative lid is used to cover the plate to reduce drying. Plates are held at room temperature for 3 days prior to grading. After 3 days, each well is observed and scored based on mortality. The results are indicated in the table entitled “Table ABC: Biological Results” (See Table Section).

[2] = test system: Beet Armyworm (Spodoptera exigua, LAPHEG); test: Bioassays on Beet Armyworm (BAW), 128-well diet tray assay; conditions: Spodoptera exigua
Outline: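 One to five second-instar larvae per well on artificial diet surface-treated with 50 μg/cm^2 test molecule (applied in 90:10 acetone-water, dried), eight wells per compound. Trays held vented at 25° C., 14:10 light-dark for five to seven days; percent mortality averaged over the eight wells.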

[3] = test system: Cabbage Looper (Trichoplusia ni, TRIPNI); test: Bioassays on Cabbage Looper (CL), 128-well diet tray assay; conditions: Trichoplusia ni
Outline: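 Second-instar larvae (1–5 per well) placed on artificial diet surface-treated with 50 μg/cm^2 test molecule applied in 90:10 acetone-water and dried. Held at 25° C., 14:10 light-dark, for five to seven days. Percent mortality scored per well and averaged over eight wells.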

[4] = Table ABC: Biological Results, species YFM
[5] = Table ABC: Biological Results, species BAW, read-out: BAW
[6] = Table ABC: Biological Results, species CL, read-out: CL
[7] = Beet Armyworm, Table ABC / ABC-DP rating, read-out: BAW rating
[8] = Cabbage Looper, Table ABC / ABC-DP rating, read-out: CL rating
[9] = Yellow Fever Mosquito, rating class
[10] = Beet Armyworm, rating class, read-out: BAW
[11] = Cabbage Looper, rating class, read-out: CL

For N#CC1(C(=O)Nc2c(F)ccc(NC(=O)c3cc(NC(=O)[C@H]4[C@H](c5ccc(F)c(C(F)(F)F)c5)C4(Cl)Cl)ccc3Cl)c2F)CC1 [F1263, 2-Chloro-N-(3-(1-cyanocyclopropane-1-carboxamido)-2,4-difluorophenyl)-5-((1R,3R)-2,2-dichloro-3-(4-fluoro-3-(trifluoromethyl)phenyl)cyclopropane-1-carboxamido)benzamide], the YFM [1, 4] was “A (80–100)”, the pest or weed control at 50 µg/cm2 [2, 5] was 50 to 100% and the pest or weed control at 50 µg/cm2 [3, 6] was 50 to 100%.
In the case of O=C(NN=CCC(F)(F)F)c1cc(NC(=O)[C@H]2[C@H](c3cc(Cl)cc(Cl)c3)C2(Cl)Cl)ccc1Cl (relative stereo) [F3008, trans-2,2-Dichloro-N-(4-chloro-3-(2-(3,3,3-trifluoropropylidene)hydrazine-1-carbonyl)phenyl)-3-(3,5-dichlorophenyl)cyclopropane-1-carboxamide], the YFM rating ([1]; Yellow Fever Mosquito) is reported as “A (80–100)”, the “YFM % Control (or Mortality) rating” value ([1]; about 1 day-old larvae, 4000 ppm master solution diluted with 90:10 water/acetone, 15 μL per well plus 220 μL larval mixture, 3 days, mortality) is reported as “A (80–100)” and the mortality at 50 µg/cm2 ([2]; 168 h, second instar larvae, 50 μg/cm^2 of test molecule on artificial diet, 25° C., five to seven days, average of eight wells, read-out: BAW % Control (or Mortality) rating) is reported as 50 to 100%. It also gave a pest or weed control at 50 µg/cm2 [2, 7] of 50 to 100%, a mortality at 50 µg/cm2 ([3]; 168 h, second instar larvae, 50 μg/cm^2 of test molecule on artificial diet, 25° C., five to seven days, average of eight wells, read-out: CL % Control (or Mortality) rating) of 50 to 100% and a pest or weed control at 50 µg/cm2 [3, 8] of 50 to 100%.
O=C(Nc1ccccc1)c1cc(NC(=O)[C@H]2[C@H](c3ccc(F)c(Cl)c3)C2(Cl)Cl)cc(C(F)(F)F)c1Cl (relative stereo) [F1212, trans-2-Chloro-5-(2,2-dichloro-3-(3-chloro-4-fluorophenyl)cyclopropane-1-carboxamido)-N-phenyl-3-(trifluoromethyl)benzamide] was tested, and the YFM [1, 4] was “A (80–100)”, the pest or weed control at 50 µg/cm2 [2, 5] was 50 to 100% and the pest or weed control at 50 µg/cm2 [3, 6] was 50 to 100%.
O=C(Nc1c(F)cc(F)cc1Br)c1cc(NC(=O)[C@H]2[C@H](c3cc(Cl)cc(Cl)c3)C2(Cl)Cl)ccc1Cl (relative stereo) [F1309, trans-N-(2-Bromo-4,6-difluorophenyl)-2-chloro-5-(2,2-dichloro-3-(3,5-dichlorophenyl)cyclopropane-1-carboxamido)benzamide] was tested, and the YFM [1, 4] was “A (80–100)”, the pest or weed control at 50 µg/cm2 [2, 5] was 50 to 100% and the pest or weed control at 50 µg/cm2 [3, 6] was 50 to 100%.
With CNNC(=O)c1cc(NC(=O)[C@H]2[C@H](c3cc(Cl)cc(Cl)c3)C2(Cl)Cl)ccc1Cl.Cl (relative stereo) [F2521, trans-2,2-Dichloro-N-(4-chloro-3-(2-methylhydrazine-1-carbonyl)phenyl)-3-(3,5-dichlorophenyl)cyclopropane-1-carboxamide hydrochloride] the YFM rating ([1]; Yellow Fever Mosquito) was “A (80–100)”, the pest or weed control at 50 µg/cm2 [2, 7] was 50 to 100% and the pest or weed control at 50 µg/cm2 [3, 8] was 50 to 100%.
For O=C(Nc1ccc(F)c(NC(=O)C(F)(F)F)c1)c1cc(NC(=O)[C@H]2[C@H](c3ccc(Cl)c(Cl)c3)C2(Cl)Cl)ccc1Cl [F1812, 2-Chloro-5-((1R,3R)-2,2-dichloro-3-(3,4-dichlorophenyl)cyclopropane-1-carboxamido)-N-(4-fluoro-3-(2,2,2-trifluoroacetamido)phenyl)benzamide], the YFM rating ([1]; Yellow Fever Mosquito) was “B (More than 0 – Less than 80)”, the pest or weed control at 50 µg/cm2 [2, 7] was 50 to 100% and the pest or weed control at 50 µg/cm2 [3, 8] was 50 to 100%.
With C/C=C/C(=O)Nc1c(F)ccc(NC(=O)c2cc(NC(=O)[C@H]3[C@H](c4ccc(F)c(C(F)(F)F)c4)C3(Cl)Cl)ccc2Cl)c1F [F1868, N-(3-((E)-But-2-enamido)-2,4-difluorophenyl)-2-chloro-5-((1R,3R)-2,2-dichloro-3-(4-fluoro-3-(trifluoromethyl)phenyl)cyclopropane-1-carboxamido)benzamide] the YFM rating ([1]; Yellow Fever Mosquito) was “A (80–100)”, the pest or weed control at 50 µg/cm2 [2, 7] was 50 to 100% and the pest or weed control at 50 µg/cm2 [3, 8] was 50 to 100%.
For Nc1c(F)ccc(NC(=O)c2cc(NC(=O)[C@H]3[C@H](c4cccc(Cl)c4)C3(Cl)Cl)ccc2Cl)c1F (relative stereo) [F1595, trans-N-(3-Amino-2,4-difluorophenyl)-2-chloro-5-(2,2-dichloro-3-(3-chlorophenyl)cyclopropane-1-carboxamido)benzamide], the YFM [1, 9] was “A (80–100)”, the pest or weed control at 50 µg/cm2 [2, 10] was 50 to 100% and the pest or weed control at 50 µg/cm2 [3, 11] was 50 to 100%.
In the case of O=C(NNc1ccncn1)c1cc(NC(=O)[C@H]2[C@H](c3cc(Cl)cc(Cl)c3)C2(Cl)Cl)ccc1Cl (relative stereo) [F2509, trans-2,2-Dichloro-N-(4-chloro-3-(2-(pyrimidin-4-yl)hydrazine-1-carbonyl)phenyl)-3-(3,5-dichlorophenyl)cyclopropane-1-carboxamide], the YFM rating ([1]; Yellow Fever Mosquito) is reported as “A (80–100)”, the pest or weed control at 50 µg/cm2 [2, 7] is reported as 50 to 100% and the pest or weed control at 50 µg/cm2 [3, 8] is reported as 50 to 100%.
For O=C(Nc1ccc(F)cc1F)c1cc(NC(=O)[C@H]2[C@@H](c3cc(F)c(Cl)c(C(F)(F)F)c3)C2(Cl)Cl)ccc1Cl (relative stereo) [F1164, cis-2-Chloro-5-(2,2-dichloro-3-(4-chloro-3-fluoro-5-(trifluoromethyl)phenyl)cyclopropane-1-carboxamido)-N-(2,4-difluorophenyl)benzamide], the YFM [1, 4] was “A (80–100)”, the pest or weed control at 50 µg/cm2 [2, 5] was 50 to 100% and the pest or weed control at 50 µg/cm2 [3, 6] was 50 to 100%.
With O=C(CC(F)(F)F)Nc1c(F)ccc(NC(=O)c2cc(NC(=O)[C@H]3[C@H](c4cccc(C(F)(F)F)c4)C3(Cl)Cl)ccc2Cl)c1F [F1738, 2-Chloro-5-((1R,3R)-2,2-dichloro-3-(3-(trifluoromethyl)phenyl)cyclopropane-1-carboxamido)-N-(2,4-difluoro-3-(3,3,3-trifluoropropanamido)phenyl)benzamide] the YFM [1, 9] was “A (80–100)”, the pest or weed control at 50 µg/cm2 [2, 10] was 50 to 100% and the pest or weed control at 50 µg/cm2 [3, 11] was 50 to 100%.
With O=C(CC(F)(F)F)Nc1c(F)ccc(NC(=O)c2cc(NC(=O)[C@H]3[C@H](c4cc(Cl)c(Cl)c(Cl)c4)C3(Cl)Cl)ccc2Cl)c1F [F1651, 2-Chloro-5-((1R,3R)-2,2-dichloro-3-(3,4,5-trichlorophenyl)cyclopropane-1-carboxamido)-N-(2,4-difluoro-3-(3,3,3-trifluoropropanamido)phenyl)benzamide] the YFM [1, 9] was “A (80–100)”, the pest or weed control at 50 µg/cm2 [2, 10] was 50 to 100% and the pest or weed control at 50 µg/cm2 [3, 11] was 50 to 100%.
For O=C(NNc1ncccn1)c1cc(NC(=O)[C@H]2[C@H](c3cc(Cl)cc(Cl)c3)C2(Cl)Cl)ccc1Cl (relative stereo) [F2508, trans-2,2-Dichloro-N-(4-chloro-3-(2-(pyrimidin-2-yl)hydrazine-1-carbonyl)phenyl)-3-(3,5-dichlorophenyl)cyclopropane-1-carboxamide], the YFM rating ([1]; Yellow Fever Mosquito) was “A (80–100)”, the pest or weed control at 50 µg/cm2 [2, 7] was 50 to 100% and the pest or weed control at 50 µg/cm2 [3, 8] was 50 to 100%.
Nc1c(F)ccc(NC(=O)c2cc(NC(=O)[C@H]3[C@H](c4cc(Cl)c(Cl)c(C(F)(F)F)c4)C3(Cl)Cl)ccc2Cl)c1F (relative stereo) [F1149, trans-N-(3-Amino-2,4-difluorophenyl)-2-chloro-5-(2,2-dichloro-3-(3,4-dichloro-5-(trifluoromethyl)phenyl)cyclopropane-1-carboxamido)benzamide] was tested, and the YFM [1, 4] was “A (80–100)”, the pest or weed control at 50 µg/cm2 [2, 5] was 50 to 100% and the pest or weed control at 50 µg/cm2 [3, 6] was 50 to 100%.
O=C(Nc1ccc(F)c(NC(=O)C2CC2(F)F)c1F)c1cc(NC(=O)[C@H]2[C@H](c3ccc(Cl)c(Cl)c3)C2(Cl)Cl)ccc1Cl (stereo partly drawn) [F1608, 2-Chloro-5-((1R,3R)-2,2-dichloro-3-(3,4-dichlorophenyl)cyclopropane-1-carboxamido)-N-(3-(2,2-difluorocyclopropane-1-carboxamido)-2,4-difluorophenyl)benzamide] was tested, and the YFM [1, 9] was “A (80–100)”, the pest or weed control at 50 µg/cm2 [2, 10] was 50 to 100% and the pest or weed control at 50 µg/cm2 [3, 11] was 50 to 100%.
In the case of O=C(Nc1ccc(F)c(NC(=O)C(Cl)Cl)c1F)c1cc(NC(=O)[C@H]2[C@H](c3ccc(Cl)c(Cl)c3)C2(Cl)Cl)ccc1Cl [F1252, 2-Chloro-5-((1R,3R)-2,2-dichloro-3-(3,4-dichlorophenyl)cyclopropane-1-carboxamido)-N-(3-(2,2-dichloroacetamido)-2,4-difluorophenyl)benzamide], the YFM [1, 4] is reported as “A (80–100)”, the pest or weed control at 50 µg/cm2 [2, 5] is reported as 50 to 100% and the pest or weed control at 50 µg/cm2 [3, 6] is reported as 50 to 100%.
